Data published in ChEMBL document CHEMBL2034879, “Discovery of SCH 900271, a Potent Nicotinic Acid Receptor Agonist for the Treatment of Dyslipidemia” (ACS Med Chem Lett, 2012).
Activity calls are given as the source filed them. The calls are words filed in the database; no cut-off is given here.

How the values were obtained:
[1] = system: Rattus norvegicus; assay: Antidyslipidemic activity in po dosed fasted Sprague-Dawley rat assessed as reduction in free fatty acid level in plasma; type: functional; settings: for minimal effective dose: read-out: MED
[2] = target: Hydroxycarboxylic acid receptor 3 (Homo sapiens, UniProt P49019); assay: Agonist activity at human GPR109b; type: functional
[3] = system: Canis familiaris; assay: Antidyslipidemic activity in fasted beagle dog assessed as reduction in free fatty acid level in plasma at 3 mg/kg, po after 1 hr relative to vehicle-treated control; type: functional, Canis lupus familiaris; parameters: scale not given: the % may be the effect or the level left
[4] = Agonist activity at dog GPR109a; type: functional, Canis lupus familiaris
[5] = system: Rattus norvegicus; assay: Antidyslipidemic activity in fasted Sprague-Dawley rat assessed as reduction in free fatty acid level in plasma at 3 mg/kg, po after 1 hr relative to vehicle-treated control; type: functional; parameters: scale not given: the % may be the effect or the level left
[6] = system: Rattus norvegicus; assay: Antidyslipidemic activity in fasted Sprague-Dawley rat assessed as reduction in triglyceride level in plasma at 3 mg/kg, po after 1 hr relative to vehicle-treated control; type: functional; parameters: scale not given: the % may be the effect or the level left
[7] = species: Rattus norvegicus; assay: Nephrotoxicity in rat assessed as increase in serum blood urea nitrogen level; type: toxicity, organism-based; settings: in vivo
[8] = system: Mus musculus; assay: Nephrotoxicity in CD1 mouse assessed as increase in serum blood urea nitrogen level at 100 mg/kg; type: toxicity, organism-based; parameters: dose 100 mg/kg; settings: in vivo
[9] = system: Canis familiaris; assay: Antidyslipidemic activity in fasted beagle dog assessed as reduction in free fatty acid level in plasma at 2 mg/kg, po after 1 hr relative to vehicle-treated control; type: functional, Canis lupus familiaris; parameters: scale not given: the % may be the effect or the level left
[10] = target: Hydroxycarboxylic acid receptor 2 (Rattus norvegicus, UniProt Q80Z39); assay: Agonist activity at rat GPR109a; type: functional
[11] = system: Rattus norvegicus; assay: Antidyslipidemic activity in fasted Sprague-Dawley rat assessed as reduction in free fatty acid level in plasma at 1 mg/kg, po after 1 hr relative to vehicle-treated control; type: functional; parameters: scale not given: the % may be the effect or the level left
[12] = system: Rattus norvegicus; assay: Antidyslipidemic activity in fasted Sprague-Dawley rat assessed as reduction in triglyceride level in plasma at 1 mg/kg, po after 1 hr relative to vehicle-treated control; type: functional; parameters: scale not given: the % may be the effect or the level left
[13] = system: Mus musculus; assay: Nephrotoxicity in CD1 mouse assessed as increase in creatinine level at 100 mg/kg; type: toxicity, organism-based; parameters: dose 100 mg/kg; settings: in vivo
[14] = species: Rattus norvegicus; assay: Nephrotoxicity in rat assessed as increase in creatinine level; type: toxicity, organism-based; settings: in vivo
[15] = system: Canis familiaris; assay: Antidyslipidemic activity in fasted beagle dog assessed as reduction in free fatty acid level in plasma at 0.3 mg/kg, po after 1 hr relative to vehicle-treated control; type: functional, Canis lupus familiaris; parameters: scale not given: the % may be the effect or the level left
[16] = system: Canis familiaris; assay: Antidyslipidemic activity in po dosed fasted beagle dog assessed as reduction in free fatty acid level in plasma relative to vehicle-treated control; type: functional, organism-based; settings: Canis lupus familiaris
[17] = target: Hydroxycarboxylic acid receptor 2 (Mus musculus, UniProt Q9EP66); assay: Agonist activity at mouse GPR109a; type: functional
[18] = species: Mus musculus; assay: Nephrotoxicity in CD1 mouse assessed as acute renal necrosis; type: toxicity, organism-based; settings: in vivo
[19] = system: Rattus norvegicus; assay: Antidyslipidemic activity in fasted Sprague-Dawley rat assessed as reduction in free fatty acid level in plasma at 3 mg/kg, po up to 2 hrs; type: functional, organism-based; parameters: dose 3 mg/kg
[20] = AUC (0 to 24 hrs) in beagle dog at 1 mg/kg, po; type: ADME, organism-based, Canis lupus familiaris; parameters: time < 24 hr, dose 1 mg/kg, route oral; settings: plasma
[21] = system: Canis familiaris; assay: Toxicity in fasted beagle dog assessed as behavioural changes at 30 mg/kg, po relative to control; type: organism-based, Canis lupus familiaris; parameters: dose 30 mg/kg, route oral; settings: in vivo
[22] = system: Canis familiaris; assay: Toxicity in fasted beagle dog assessed as flushing at 1 to 10 mg/kg, po; type: organism-based, Canis lupus familiaris; parameters: dose 1-10 mg/kg, route oral; settings: in vivo
[23] = target: Voltage-gated inwardly rectifying potassium channel KCNH2 (Homo sapiens, UniProt Q12809); assay: Inhibition of human ERG up to 10 uM by patch clamp assay
[24] = system: Liver; assay: Intrinsic clearance in dog liver microsomes assessed per 10^6 cells; type: ADME, Canis lupus familiaris, Microsome
[25] = Oral bioavailability in beagle dog at 1 mg/kg; type: ADME, organism-based, Canis lupus familiaris; settings: in vivo
[26] = AUC (0 to 24 hrs) in Sprague-Dawley rat at 5 mg/kg, po; type: ADME, organism-based; parameters: time < 24 hr, dose 5 mg/kg, route oral; settings: plasma
[27] = system: Liver microsomes; assay: Intrinsic clearance in human liver microsomes assessed per 10^6 cells; type: ADME, Microsome
[28] = target: Cytochrome P450 2D6 (Homo sapiens, UniProt P10635); assay: Inhibition of human CYP2D6; type: ADME
[29] = Oral bioavailability in Sprague-Dawley rat at 5 mg/kg; type: ADME, organism-based; settings: in vivo
[30] = system: Canis familiaris; assay: Toxicity in fasted beagle dog assessed as increase in cutaneous blood flow at 30 mg/kg, po relative to control; type: organism-based, Canis lupus familiaris; parameters: dose 30 mg/kg, route oral; settings: in vivo
[31] = system: Rattus norvegicus; assay: Antidyslipidemic activity in po dosed fasted Sprague-Dawley rat assessed as reduction in triglyceride level in plasma; type: functional
[32] = system: Liver; assay: Intrinsic clearance in mouse liver microsomes assessed per 10^6 cells; type: ADME, Microsome
[33] = target: Cytochrome P450 2C9 (Homo sapiens, UniProt P11712); assay: Inhibition of human CYP2C9; type: ADME
[34] = system: Canis familiaris; assay: Toxicity in fasted beagle dog assessed as behavioural changes at 1 to 10 mg/kg, po; type: organism-based, Canis lupus familiaris; parameters: dose 1-10 mg/kg, route oral; settings: in vivo
[35] = target: Cytochrome P450 3A4 (Homo sapiens, UniProt P08684); assay: Inhibition of human CYP3A4; type: ADME
[36] = system: Canis familiaris; assay: Antidyslipidemic activity in fasted beagle dog assessed as reduction in free fatty acid level in plasma at 1 mg/kg, po after 1 hr relative to vehicle-treated control; type: functional, Canis lupus familiaris; parameters: scale not given: the % may be the effect or the level left
[37] = system: Canis familiaris; assay: Toxicity in fasted beagle dog assessed as change in skin colour at 1 to 10 mg/kg, po; type: organism-based, Canis lupus familiaris; parameters: dose 1-10 mg/kg, route oral; settings: in vivo
[38] = target: T1, Cytochrome P450 1A2 (Homo sapiens, UniProt P05177); assay: Inhibition of human CYP1A2; type: ADME
T1 sequence (P05177 whole entry): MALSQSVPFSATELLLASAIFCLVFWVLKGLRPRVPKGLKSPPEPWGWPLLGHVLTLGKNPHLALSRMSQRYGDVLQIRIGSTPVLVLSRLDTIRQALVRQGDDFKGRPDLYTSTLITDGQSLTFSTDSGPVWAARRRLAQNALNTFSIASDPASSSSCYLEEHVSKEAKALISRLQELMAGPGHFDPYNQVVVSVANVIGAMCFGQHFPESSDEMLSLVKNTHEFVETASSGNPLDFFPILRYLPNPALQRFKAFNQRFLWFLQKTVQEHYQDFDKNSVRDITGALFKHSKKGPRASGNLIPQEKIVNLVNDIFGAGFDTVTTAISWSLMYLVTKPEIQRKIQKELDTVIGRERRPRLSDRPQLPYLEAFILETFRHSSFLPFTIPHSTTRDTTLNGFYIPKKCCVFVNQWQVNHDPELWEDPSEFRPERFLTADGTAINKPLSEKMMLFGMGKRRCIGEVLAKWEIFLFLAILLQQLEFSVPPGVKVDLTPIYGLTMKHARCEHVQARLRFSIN

[39] = system: Rattus norvegicus; assay: Antidyslipidemic activity in fasted Sprague-Dawley rat assessed as reduction in free fatty acid level in plasma at 3 mg/kg, po after 2 hrs; type: functional, organism-based; parameters: dose 3 mg/kg
[40] = system: Mus musculus; assay: Nephrotoxicity in CD1 mouse at 100 mg/kg, po administered qd for 5 days measured 2 hrs post-last dose; type: toxicity, organism-based; parameters: dose 100 mg/kg, route oral; settings: in vivo
[41] = system: Liver microsomes; assay: Intrinsic clearance in rat liver microsomes assessed per 10^6 cells; type: ADME, Microsome
[42] = system: Canis familiaris; assay: Antidyslipidemic activity in po dosed fasted beagle dog assessed as reduction in free fatty acid level in plasma after 4 hr relative to vehicle-treated control; type: functional, organism-based; settings: Canis lupus familiaris
[43] = system: Canis familiaris; assay: Toxicity in beagle dog assessed as flushing at 3 mg/kg, po; type: organism-based, Canis lupus familiaris; parameters: dose 3 mg/kg, route oral; settings: in vivo

Hydroxycarboxylic acid receptor 2 (Rattus norvegicus, UniProt Q80Z39), sequence (Q80Z39 whole entry): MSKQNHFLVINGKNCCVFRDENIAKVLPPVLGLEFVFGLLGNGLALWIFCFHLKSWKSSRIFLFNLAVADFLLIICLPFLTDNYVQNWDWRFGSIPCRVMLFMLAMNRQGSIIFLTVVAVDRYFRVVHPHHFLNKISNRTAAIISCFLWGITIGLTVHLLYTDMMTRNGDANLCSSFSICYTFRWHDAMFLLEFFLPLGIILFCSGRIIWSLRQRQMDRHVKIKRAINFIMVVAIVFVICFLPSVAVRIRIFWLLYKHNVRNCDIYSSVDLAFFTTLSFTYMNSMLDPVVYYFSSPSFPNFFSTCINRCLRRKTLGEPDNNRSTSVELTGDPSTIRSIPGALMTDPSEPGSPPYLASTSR
Hydroxycarboxylic acid receptor 2 (Mus musculus, UniProt Q9EP66), sequence (Q9EP66 whole entry): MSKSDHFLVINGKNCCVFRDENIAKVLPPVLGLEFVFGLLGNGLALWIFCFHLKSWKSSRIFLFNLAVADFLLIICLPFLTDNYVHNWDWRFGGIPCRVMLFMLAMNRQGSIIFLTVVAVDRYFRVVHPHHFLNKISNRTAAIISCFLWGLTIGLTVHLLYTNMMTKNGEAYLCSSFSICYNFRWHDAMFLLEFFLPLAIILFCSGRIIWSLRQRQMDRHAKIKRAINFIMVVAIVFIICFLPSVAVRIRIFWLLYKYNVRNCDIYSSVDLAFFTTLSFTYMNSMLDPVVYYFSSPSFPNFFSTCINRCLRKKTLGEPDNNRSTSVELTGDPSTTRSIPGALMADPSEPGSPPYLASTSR
Hydroxycarboxylic acid receptor 3, sequence (P49019 whole entry): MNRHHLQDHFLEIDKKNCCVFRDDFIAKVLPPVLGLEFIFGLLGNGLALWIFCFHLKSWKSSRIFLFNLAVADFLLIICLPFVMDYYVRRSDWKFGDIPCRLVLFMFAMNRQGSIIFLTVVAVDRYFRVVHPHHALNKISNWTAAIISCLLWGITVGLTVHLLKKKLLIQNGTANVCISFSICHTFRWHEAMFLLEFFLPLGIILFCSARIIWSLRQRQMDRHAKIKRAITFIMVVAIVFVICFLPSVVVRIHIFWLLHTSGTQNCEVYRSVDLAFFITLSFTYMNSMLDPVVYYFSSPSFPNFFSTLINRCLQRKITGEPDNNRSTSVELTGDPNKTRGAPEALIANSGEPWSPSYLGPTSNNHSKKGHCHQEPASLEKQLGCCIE
Voltage-gated inwardly rectifying potassium channel KCNH2, sequence (Q12809 whole entry): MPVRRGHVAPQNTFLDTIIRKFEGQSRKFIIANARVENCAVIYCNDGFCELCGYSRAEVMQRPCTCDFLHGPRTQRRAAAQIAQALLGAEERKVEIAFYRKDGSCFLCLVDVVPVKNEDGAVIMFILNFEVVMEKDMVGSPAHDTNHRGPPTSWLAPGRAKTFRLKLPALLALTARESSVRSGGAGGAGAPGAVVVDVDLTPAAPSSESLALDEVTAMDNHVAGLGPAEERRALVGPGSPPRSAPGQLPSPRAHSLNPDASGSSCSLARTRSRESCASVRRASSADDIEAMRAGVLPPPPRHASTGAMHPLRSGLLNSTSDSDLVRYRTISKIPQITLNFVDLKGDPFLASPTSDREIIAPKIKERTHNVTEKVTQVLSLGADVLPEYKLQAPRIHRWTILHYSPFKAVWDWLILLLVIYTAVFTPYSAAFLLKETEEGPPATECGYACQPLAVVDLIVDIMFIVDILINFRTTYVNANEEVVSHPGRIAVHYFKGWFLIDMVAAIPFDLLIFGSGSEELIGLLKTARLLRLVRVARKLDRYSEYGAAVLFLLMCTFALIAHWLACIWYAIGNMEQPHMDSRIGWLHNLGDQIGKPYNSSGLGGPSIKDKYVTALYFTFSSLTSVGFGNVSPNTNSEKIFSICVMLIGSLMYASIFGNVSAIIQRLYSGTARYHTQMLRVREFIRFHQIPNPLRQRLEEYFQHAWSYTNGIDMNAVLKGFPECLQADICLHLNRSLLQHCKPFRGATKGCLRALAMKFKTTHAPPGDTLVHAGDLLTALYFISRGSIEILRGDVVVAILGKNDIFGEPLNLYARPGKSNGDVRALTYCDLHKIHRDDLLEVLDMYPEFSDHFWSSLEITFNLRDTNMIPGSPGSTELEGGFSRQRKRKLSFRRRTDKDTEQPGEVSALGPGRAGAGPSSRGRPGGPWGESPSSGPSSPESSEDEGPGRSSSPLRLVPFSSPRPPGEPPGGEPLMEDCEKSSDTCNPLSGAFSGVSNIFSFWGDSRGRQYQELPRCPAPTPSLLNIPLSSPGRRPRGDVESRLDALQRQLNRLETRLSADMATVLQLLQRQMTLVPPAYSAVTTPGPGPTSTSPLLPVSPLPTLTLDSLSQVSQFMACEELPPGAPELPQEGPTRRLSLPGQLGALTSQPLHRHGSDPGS
Cytochrome P450 2C9, sequence (P11712 whole entry): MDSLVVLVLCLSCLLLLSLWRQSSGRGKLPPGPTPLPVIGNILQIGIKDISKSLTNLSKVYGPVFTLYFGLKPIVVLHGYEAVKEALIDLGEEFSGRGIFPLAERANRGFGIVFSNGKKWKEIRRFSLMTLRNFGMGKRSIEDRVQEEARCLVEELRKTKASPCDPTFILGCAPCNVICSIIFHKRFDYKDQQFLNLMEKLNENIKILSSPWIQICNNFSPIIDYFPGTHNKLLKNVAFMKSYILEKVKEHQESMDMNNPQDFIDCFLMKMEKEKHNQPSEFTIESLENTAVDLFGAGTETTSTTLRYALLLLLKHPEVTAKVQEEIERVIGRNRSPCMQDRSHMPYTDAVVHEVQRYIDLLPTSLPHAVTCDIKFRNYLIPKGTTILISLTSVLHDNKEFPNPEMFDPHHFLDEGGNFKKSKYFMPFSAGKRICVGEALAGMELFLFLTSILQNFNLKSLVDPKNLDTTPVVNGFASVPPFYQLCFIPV
Cytochrome P450 3A4, sequence (P08684 whole entry): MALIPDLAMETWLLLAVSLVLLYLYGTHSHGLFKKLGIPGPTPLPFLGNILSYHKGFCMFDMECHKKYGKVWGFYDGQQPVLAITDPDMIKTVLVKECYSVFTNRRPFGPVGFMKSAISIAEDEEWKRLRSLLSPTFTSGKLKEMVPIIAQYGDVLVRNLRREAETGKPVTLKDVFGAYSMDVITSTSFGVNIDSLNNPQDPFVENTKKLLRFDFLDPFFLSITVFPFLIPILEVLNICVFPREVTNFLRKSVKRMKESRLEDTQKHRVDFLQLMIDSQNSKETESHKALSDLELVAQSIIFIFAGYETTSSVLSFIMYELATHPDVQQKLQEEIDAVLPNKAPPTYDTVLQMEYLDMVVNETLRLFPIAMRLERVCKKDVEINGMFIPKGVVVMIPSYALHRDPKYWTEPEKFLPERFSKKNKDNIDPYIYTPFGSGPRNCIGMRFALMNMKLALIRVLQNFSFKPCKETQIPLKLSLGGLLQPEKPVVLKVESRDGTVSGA
Cytochrome P450 2D6, sequence (P10635 whole entry): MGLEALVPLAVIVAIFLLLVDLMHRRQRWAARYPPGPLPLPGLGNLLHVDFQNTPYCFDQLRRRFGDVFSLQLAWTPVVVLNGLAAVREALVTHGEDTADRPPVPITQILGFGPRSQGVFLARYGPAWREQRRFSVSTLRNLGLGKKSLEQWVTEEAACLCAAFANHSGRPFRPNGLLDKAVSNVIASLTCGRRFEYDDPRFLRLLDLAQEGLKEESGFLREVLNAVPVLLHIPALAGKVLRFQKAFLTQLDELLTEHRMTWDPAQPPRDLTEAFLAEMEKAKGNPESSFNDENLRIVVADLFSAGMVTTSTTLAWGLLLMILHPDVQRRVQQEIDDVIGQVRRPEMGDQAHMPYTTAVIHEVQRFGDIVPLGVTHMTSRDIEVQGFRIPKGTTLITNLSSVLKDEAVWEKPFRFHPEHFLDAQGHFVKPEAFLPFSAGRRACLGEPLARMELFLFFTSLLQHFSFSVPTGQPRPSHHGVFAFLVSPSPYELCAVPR

O=C(O)c1cccnc1 [NIACIN]
minimal effective dose [1]: 10 mg/kg | EC50 [2]: > 10000 nM | Activity [3]: 38% | EC50 [4]: 31 nM

CC(C)CCc1cc(=O)oc2[nH]c(=O)[nH]c(=O)c12
Activity [5]: 15% | EC50 [2]: 1300 nM | Activity [6]: 16%

O=c1[nH]c(=O)c2c(CCCC3CC3)cc(=O)oc2[nH]1
Activity [7]: Non-toxic | Activity [8]: Toxic | Activity [9]: 80% | EC50 [2]: 140 nM | EC50 [10]: 2 nM | Activity [11]: 58% | EC50 [4]: 1 nM | Activity [12]: 49% | Activity [13]: Toxic | Activity [14]: Non-toxic

CCCCc1cc(=O)oc2[nH]c(=O)[nH]c(=O)c12
Activity [7]: Non-toxic | Activity [8]: Toxic | EC50 [2]: 190 nM | Activity [15]: 90% | EC50 [10]: 8 nM | Activity [11]: 29% | EC50 [4]: 16 nM | Activity [16]: Dose-dependent effect | Activity [12]: 40% | Activity [13]: Toxic | EC50 [17]: 12 nM | Activity [18]: Toxic | Activity [14]: Non-toxic

CC1(CCCc2cc(=O)oc3[nH]c(=O)[nH]c(=O)c23)CC1 [SCH-900271]
Activity [19]: Active | Activity [1]: Dose-dependent effect | ED50 [1]: 0.5 mg/kg | minimal effective dose [1]: 3 mg/kg | AUC(0-t) at 24 h [20]: 7.2 µM·h | Activity [21]: Non-toxic | Activity [22]: Non-toxic | inhibition (INH) [23]: Not Active | CLH [24]: < 1 µL/min | bioavailability [25]: 40% | AUC(0-t) at 24 h [26]: 7.6 µM·h | CLH [27]: 1.6 µL/min | IC50 [28]: > 50000 nM | bioavailability [29]: 76% | fold change (FC) [30]: 5 | EC50 [2]: 96 nM | EC50 [10]: 8 nM | Activity [31]: Dose-dependent effect | ED50 [31]: 0.5 mg/kg | minimal effective dose ([31]; read-out: MED): 3 mg/kg | CLH [32]: 8.7 µL/min | Activity [11]: 53% | IC50 [33]: > 50000 nM | EC50 [4]: 5 nM | Activity [34]: Non-toxic | IC50 [35]: > 50000 nM | Activity [12]: 53% | Activity [36]: 50% | Activity [37]: Non-toxic | IC50 [38]: > 50000 nM | Activity [39]: inactive | EC50 [17]: 6 nM | Activity [40]: Non-toxic | CLH [41]: 10 µL/min

O=c1[nH]c(=O)c2c(CCC3CCC3)cc(=O)oc2[nH]1
Activity [7]: Non-toxic | Activity [8]: Toxic | EC50 [2]: 67 nM | EC50 [10]: 5 nM | Activity [11]: 50% | Activity [12]: 31% | Activity [13]: Toxic | EC50 [17]: 4 nM | Activity [14]: Non-toxic

O=c1[nH]c(=O)c2c(CCCC(F)F)cc(=O)oc2[nH]1
Activity [42]: inactive | EC50 [2]: 59 nM | EC50 [10]: 2 nM | Activity [3]: 80% | Activity [43]: Toxic | Activity [12]: 59% | EC50 [17]: 5 nM
